The source of these data is US20090163476A1, “N-Phenyl Benzamide Derivatives as Sirtuin Modulators” (Sirtris Pharmaceuticals, Inc., priority 2005, published 2009).

pIC50: −log10 of the molar value.

The target of test [1] is T1, SIRT1 (Homo sapiens, UniProt Q96EB6).
T1 sequence (Q96EB6 1-747): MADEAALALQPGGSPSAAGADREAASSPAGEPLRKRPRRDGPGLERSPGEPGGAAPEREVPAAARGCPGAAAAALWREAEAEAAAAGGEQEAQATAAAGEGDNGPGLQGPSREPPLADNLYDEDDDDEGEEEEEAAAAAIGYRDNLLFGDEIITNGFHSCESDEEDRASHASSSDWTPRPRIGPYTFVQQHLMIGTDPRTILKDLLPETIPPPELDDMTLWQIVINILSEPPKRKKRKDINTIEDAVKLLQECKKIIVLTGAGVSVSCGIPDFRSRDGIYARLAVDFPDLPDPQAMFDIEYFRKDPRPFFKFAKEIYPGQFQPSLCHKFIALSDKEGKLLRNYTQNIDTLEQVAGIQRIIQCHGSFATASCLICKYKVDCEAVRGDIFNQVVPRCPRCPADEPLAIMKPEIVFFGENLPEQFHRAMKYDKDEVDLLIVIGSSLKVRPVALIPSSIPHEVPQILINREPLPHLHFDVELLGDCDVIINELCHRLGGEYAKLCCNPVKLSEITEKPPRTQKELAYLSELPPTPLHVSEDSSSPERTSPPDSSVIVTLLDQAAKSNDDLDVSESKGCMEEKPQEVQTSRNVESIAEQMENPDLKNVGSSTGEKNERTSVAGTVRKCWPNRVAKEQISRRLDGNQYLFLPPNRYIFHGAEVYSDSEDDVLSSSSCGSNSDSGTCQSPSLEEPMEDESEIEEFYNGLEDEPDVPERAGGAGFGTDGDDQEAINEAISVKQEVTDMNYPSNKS
The test can be described thus: SIRT1 fluorescence polarization or mass spectrometry based assay (format not given). The note with it: inhibition of SIRT1 (Table 5). The class given is biochemical. On the technique in general: Polarisation of emitted light reports the rotation of a fluorescent probe.

Test [2] has as its target T2, human SIRT3 (Homo sapiens, UniProt Q9NTG7).
T2 construct: The SIRT3 protein used in the assays corresponded to amino acid residues 102-399 of human SIRT3; His-tag (N); made in house; host or cells: E. coli
T2 sequence (Q9NTG7 102-399): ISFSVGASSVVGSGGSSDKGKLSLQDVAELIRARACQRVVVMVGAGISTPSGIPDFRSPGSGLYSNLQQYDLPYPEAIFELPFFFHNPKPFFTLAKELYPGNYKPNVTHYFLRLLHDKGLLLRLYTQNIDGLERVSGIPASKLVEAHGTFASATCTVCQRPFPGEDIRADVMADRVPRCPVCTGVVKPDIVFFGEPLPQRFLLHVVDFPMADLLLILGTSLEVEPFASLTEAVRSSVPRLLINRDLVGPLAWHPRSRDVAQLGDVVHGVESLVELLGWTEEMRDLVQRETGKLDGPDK
The test can be described thus: Fluorescence polarization assay of SIRT3 activity (Histone H4-based peptide substrate). The class given is biochemical. The conditions noted are these: inhibition of SIRT3 (Table 7). The source says: A fluorescence polarization assay was used to identify modulators of SIRT3 activity. The same assay may be used to identify modulators of any sirtuin protein. The assay utilizes a peptide substrate based on a fragment of Histone H4, a known sirtuin deacetylation target. The substrate contains a peptide having 14 amino acid residues as follows: Biotin-GASSHSK(Ac)VLK(MR121) (SEQ ID NO: 3) wherein K(Ac) is an acetylated lysine residue. The peptide is labeled with the fluorophore MR121 (excitation 635 nm/emission 680 nm) at the C-terminus and biotin at the N-terminus.
The peptide substrate is exposed to a sirtuin protein in the presence of NAD^+ to allow deacetylation of the substrate and render it sensitive to cleavage by trypsin. Trypsin is then added and the reaction is carried to completion (i.e., the deacetylated substrate is cleaved) releasing the MR121 fragment. Streptavidin is then added to the reaction where it can bind both the uncleaved substrate (i.e., any remaining acetylated substrate) and the non-fluorescent portion of the cleaved peptide substrate (i.e., the biotin containing fragment). The fluorescence polarization signal observed for the full length peptide substrate bound to streptavidin is higher than the fluorescence polarization signal observed for the released MR121C-terminal fragment. Therefore, the fluorescence polarization obtained is inversely proportional to the level of deacetylation (e.g., the signal is inversely proportional to the activity of the sirtuin protein). Results are read on a microplate fluorescence polarization reader (Molecular Devices Spectramax MD) with appropriate excitation and emission filters.
The fluorescence polarization assays may be conducted as follows: 0.5 μM peptide substrate and 50 μM βNAD^+ is incubated with 2 nM of SIRT3 for 60 minutes at 37° C. in a reaction buffer (25 mM Tris-acetate pH8, 137 mM Na—Ac, 2.7 mM K—Ac, 1 mM Mg—Ac, 0.1% Pluronic F127, 10 mM CaCl2, 1 mM TCEP, 0.025% BSA). Test compounds are solubilized in DMSO and are added to the reaction at 11 concentrations ranging from 0.7 μM to 100 μM. The SIRT3 protein used in the assays corresponded to amino acid residues 102-399 of human SIRT3 with an N-terminal His-tag. […] Fluorescent polarization is determined at excitation (650 nm) and emissions (680 nm) wavelengths. The level of activity of the sirtuin protein in the presence of the various concentrations of test compound are then determined and may be compared to the level of activity of the sirtuin protein in the absence of the test compound, and/or the level of activity of the sirtuin proteins in the negative control (e.g., level of inhibition) and positive control (e.g., level of activation) described below. […]

By pIC50 is commonly meant the negative decadic logarithm of the IC50, by convention in mol/L. Regarding `COc1ccccc1C(=O)Nc1cccc(/C=C/C(=O)N2CCCNCC2)c1` [Compound 15], the results for the pIC50 in test [1] and in test [2] were 3.82 to 4.00 and 4.00 to 4.29, respectively.

As to `N#Cc1cccc(C(=O)Nc2ccc(-c3cc(C(N)=O)co3)cc2)c1` [Compound 16], the pIC50 in test [2] is 3.82 to 4.00.

For the compound `O=C(Nc1cccc(/C=C/C(=O)N2CCCNCC2)c1)c1ccc(F)c(C(F)(F)F)c1` [Compound 17], the pIC50 in test [2] is 4.00 to 4.29.

Turning to `COc1ccc(C(=O)Nc2cccc(/C=C/C(=O)N3CCCNCC3)c2)cc1OC` [Compound 18], the pIC50 in test [2] is 4.00 to 4.29.
